Read-outs that look alike come from different tables or passages of the source. *1 amine or outer side, *2 acyl side, *3 side chain or, on linkers, in order; H or OH if unused. Where a SMILES comes first, the peptide text is derived from it. Side-chain parts run from the residue outwards. [ ]: non-standard residue; d: D form. The star is where a group is joined. αMePhe(2-F) = C[C@](N)(Cc1ccccc1F)C(=O)O; γGlu = O=C(O)[C@H](CCC(=O)[*:2])N[*:1]; C14 diacid = O=C(O)CCCCCCCCCCCCC(=O)*; αMeY = C[C@](N)(Cc1ccc(O)cc1)C(=O)O; αMeL = CC(C)C[C@](C)(N)C(=O)O; Orn = NCCC[C@H](N)C(=O)O; AEEA = NCCOCCOCC(=O)O; Aib = CC(C)(N)C(=O)O
Columns and labels:
Assay type in all cases: cell-based
hGCGR = molecular target: T1, hGCGR (Homo sapiens, UniProt P47871); assay: Functional cAMP formation (HTRF) in HEK-293 clonal cells expressing hGCGR, 0.1% bovine casein, without or with 1.0% human serum albumin; conditions: geometric mean, read-out: hGCGR EC50, nM (SEM, n)
T1 construct: expressed in transfected cells
Procedure, shortened: (§1)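 Cells were stimulated with peptide for 30 min at 37° C, then lysed in buffer carrying cAMP-d2 and anti-cAMP Eu3+-cryptate for a competitive HTRF read after at least 60 min at room temperature. The 665/620 nm ratio was converted to nM cAMP against a standard curve.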

hGLP-1R = hGLP-1R (Homo sapiens, UniProt P43220); assay: Functional cAMP formation (HTRF) in HEK-293 clonal cells expressing hGLP-1R, 0.1% bovine casein, without or with 1.0% human serum albumin; parameters: expressed in transfected cells; conditions: 37° C.; for Emax: HEK293, percent of maximal response to GLP-1(7-36)NH2, 0.1% bovine casein, arithmetic mean, read-out: hGLP-1R Emax, % ± SEM
Procedure, shortened: as §1

hGIPR = molecular target: T2, hGIPR (Homo sapiens, UniProt P48546); assay: Functional cAMP formation (HTRF) in HEK-293 clonal cells expressing hGIPR, 0.1% bovine casein, without or with 1.0% human serum albumin; conditions: for Emax: read-out: hGIPR Emax, % ± SEM; for EC50: geometric mean, read-out: hGIPR EC50, nM (SEM, n)
T2 construct: expressed in transfected cells
T2 sequence (P48546 22-466): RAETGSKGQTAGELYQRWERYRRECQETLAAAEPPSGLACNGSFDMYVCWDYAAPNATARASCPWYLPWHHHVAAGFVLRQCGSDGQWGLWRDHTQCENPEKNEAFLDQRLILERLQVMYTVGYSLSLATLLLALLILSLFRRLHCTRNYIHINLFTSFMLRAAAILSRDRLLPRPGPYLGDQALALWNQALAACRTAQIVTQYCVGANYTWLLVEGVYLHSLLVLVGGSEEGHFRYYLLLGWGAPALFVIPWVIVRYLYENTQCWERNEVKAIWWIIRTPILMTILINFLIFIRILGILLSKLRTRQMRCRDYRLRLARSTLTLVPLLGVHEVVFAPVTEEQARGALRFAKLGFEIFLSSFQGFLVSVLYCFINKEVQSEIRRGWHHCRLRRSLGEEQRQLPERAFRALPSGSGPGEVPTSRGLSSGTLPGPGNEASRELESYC
Procedure, shortened: as §1

[1] = cAMP, incubated at 37° C., 0.1% bovine casein (no human serum albumin)
[2] = 0.1% bovine casein and 1.0% human serum albumin, 37° C.

Chain of hGLP-1R (P43220 24-463): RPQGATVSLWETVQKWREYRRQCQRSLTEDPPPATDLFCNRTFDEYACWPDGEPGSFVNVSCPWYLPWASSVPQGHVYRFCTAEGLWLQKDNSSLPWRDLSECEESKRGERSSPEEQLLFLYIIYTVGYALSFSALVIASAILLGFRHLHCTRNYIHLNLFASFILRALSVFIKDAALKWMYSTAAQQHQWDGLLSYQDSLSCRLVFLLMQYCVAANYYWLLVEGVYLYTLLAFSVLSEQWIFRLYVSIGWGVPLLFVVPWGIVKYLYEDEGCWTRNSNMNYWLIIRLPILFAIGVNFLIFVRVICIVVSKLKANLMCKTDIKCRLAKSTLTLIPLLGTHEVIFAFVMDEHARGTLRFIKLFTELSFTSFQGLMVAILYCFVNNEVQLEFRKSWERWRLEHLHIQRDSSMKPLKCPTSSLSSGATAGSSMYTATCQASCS
T1 sequence (P47871 26-477): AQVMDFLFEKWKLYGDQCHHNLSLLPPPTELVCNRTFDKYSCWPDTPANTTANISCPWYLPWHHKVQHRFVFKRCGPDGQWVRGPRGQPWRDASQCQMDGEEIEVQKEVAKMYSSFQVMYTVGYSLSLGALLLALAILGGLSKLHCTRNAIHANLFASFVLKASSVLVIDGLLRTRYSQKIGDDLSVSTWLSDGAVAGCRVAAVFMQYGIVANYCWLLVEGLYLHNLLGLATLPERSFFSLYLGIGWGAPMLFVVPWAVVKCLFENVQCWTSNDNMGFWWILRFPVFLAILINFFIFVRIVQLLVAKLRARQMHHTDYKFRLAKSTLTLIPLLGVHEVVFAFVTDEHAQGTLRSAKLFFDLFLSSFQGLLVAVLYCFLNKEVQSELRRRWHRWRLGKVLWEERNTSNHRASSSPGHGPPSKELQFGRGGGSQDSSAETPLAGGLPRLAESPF

SMILES	EC50 (hGCGR; [1]) [nM]	Emax (hGLP-1R) [%]	Emax (hGIPR; HEK293, percent of maximal response to GIP(1-42)NH2, 37° C., 0.1% bovine casein, arithmetic mean) [%]	EC50 (hGIPR; [1]) [nM]	EC50 (hGCGR; [2]) [nM]	EC50 (hGLP-1R; 0.1% bovine casein and 1.0% human serum albumin, geometric mean, read-out: hGLP-1R EC50, nM (SEM, n)) [nM]	EC50 (hGIPR; [2]) [nM]	Emax (hGIPR; HEK293, 0.1% bovine casein and 1.0% human serum albumin, 37° C., percent of maximal response to GIP(1-42)NH2) [%]
CC[C@H](C)[C@H](NC(=O)[C@H](CCCN)NC(=O)[C@H](CC(=O)O)NC(=O)[C@H](CC(C)C)NC(=O)[C@](C)(CC(C)C)NC(=O)[C@@H](NC(=O)[C@H](CO)NC(=O)[C@H](CCCCNC(=O)COCCOCCNC(=O)COCCOCCNC(=O)CC[C@H](NC(=O)CCCCCCCCCCCCC(=O)O)C(=O)O)NC(=O)[C@H](CC(=O)O)NC(=O)[C@H](CO)NC(=O)[C@@H](NC(=O)[C@](C)(Cc1ccccc1F)NC(=O)[C@@H](NC(=O)CNC(=O)[C@H](CCC(=O)O)NC(=O)C(C)(C)NC(=O)[C@@H](N)Cc1ccc(O)cc1)[C@@H](C)O)[C@@H](C)O)[C@@H](C)CC)C(=O)N[C@@H](C)C(=O)N[C@@H](CCC(N)=O)C(=O)NC(C)(C)C(=O)N[C@@H](CCC(=O)O)C(=O)N[C@@H](Cc1ccccc1)C(=O)N[C@H](C(=O)N[C@H](CCC(=O)O)C(=O)N[C@@](C)(Cc1ccc(O)cc1)C(=O)N[C@@H](CC(C)C)C(=O)N[C@H](C(=O)N[C@@H](CCC(=O)O)C(=O)NCC(=O)NCC(=O)N[C@@H](CCCCNC(=O)COCCOCCNC(=O)COCCOCCNC(=O)CC[C@H](NC(=O)CCCCCCCCCCCCC(=O)O)C(=O)O)C(=O)N[C@@H](CO)C(=O)N[C@@H](CO)C(=O)NCC(=O)N[C@@H](C)C(=O)N1CCC[C@H]1C(=O)N1CCC[C@H]1C(=O)N1CCC[C@H]1C(=O)N[C@@H](CO)C(N)=O)[C@@H](C)CC)[C@@H](C)CC [Example 108] (H-Y[Aib]EGT[αMePhe(2-F)]TSDK([AEEA-AEEA-γGlu-C14 diacid])SI[αMeL]LD[Orn]IAQ[Aib]EFI[dE][αMeY]LIEGGK([AEEA-AEEA-γGlu-C14 diacid])SSGAPPPS-NH2; N-terminus assumed)	> 9950	97.6	85.2	0.0249	–	–	–	–
CC[C@H](C)[C@H](NC(=O)[C@H](CC(C)C)NC(=O)[C@H](CCCCNC(=O)COCCOCCNC(=O)COCCOCCNC(=O)CC[C@H](NC(=O)CCCc1ccc(C(C)(C)C)cc1)C(=O)O)NC(=O)[C@H](CCC(=O)O)NC(=O)[C@@H](NC(=O)[C@H](Cc1ccccc1)NC(=O)[C@H](CCC(=O)O)NC(=O)C(C)(C)NC(=O)[C@H](CCC(N)=O)NC(=O)[C@H](C)NC(=O)[C@H](CCCCNC(=O)COCCOCCNC(=O)COCCOCCNC(=O)CC[C@H](NC(=O)CCCc1ccc(C(C)(C)C)cc1)C(=O)O)NC(=O)[C@H](CCCN)NC(=O)[C@H](CC(=O)O)NC(=O)[C@H](CC(C)C)NC(=O)[C@](C)(CC(C)C)NC(=O)[C@@H](NC(=O)[C@H](CO)NC(=O)[C@H](Cc1ccncc1)NC(=O)[C@H](CC(=O)O)NC(=O)[C@H](CO)NC(=O)[C@@H](NC(=O)[C@](C)(Cc1ccccc1F)NC(=O)[C@@H](NC(=O)CNC(=O)[C@H](CCC(=O)O)NC(=O)C(C)(C)NC(=O)[C@@H](N)Cc1ccc(O)cc1)[C@@H](C)O)[C@@H](C)O)[C@@H](C)CC)[C@@H](C)CC)C(=O)N[C@@H](CCC(=O)O)C(=O)NCC(=O)NCC(=O)N1CCC[C@H]1C(=O)N[C@@H](CO)C(=O)N[C@@H](CO)C(=O)NCC(=O)N[C@@H](C)C(=O)N1CCC[C@H]1C(=O)N1CCC[C@H]1C(=O)N1CCC[C@H]1C(=O)N[C@@H](CO)C(N)=O [Example 68]	> 9950	95.9	–	0.0105	> 9950	5.79	0.0831	92.4

Source: patent US20230265151A1, “GIP/GLP1 CO-AGONIST COMPOUNDS” (priority 2020, published 2023)
